Results taken from patent US9840481B2, “Allosteric modulators of nicotinic acetylcholine receptors” (MERCK SHARP & DOHME CORP., priority 2016, dated 2017).
Where two headings read alike, the source gives them in different places.

Target: T1, human α7 nAChR stably expressed in a HEK cell line (with human RIC-3) (Homo sapiens, UniProt P36544)
T1 construct: PrecisION hnAChR α7/RIC-3
Experiment: Automated patch-clamp electrophysiology functional assay (Assay A), IonFlux HT, whole-cell population patch
Type: cell-based
Protocol: The α7 nAChR positive allosteric modulator (PAM) activity of the present compounds may be tested using assays known in the art. The α7 nAChR PAMs described herein have activities in an automated patch-clamp electrophysiology functional assay as described in the examples. The assay was performed using the IonFlux HT in a whole-cell, population patch configuration. See Golden et al. Assay Drug Dev. Technol. (2011) 9:608-619. The compounds were assessed for their ability to modulate the function of the human α7 nAChR stably expressed in a HEK cell line both in the presence, and in the absence of the natural α7 agonist acetylcholine. By performing a series of such measurements at different concentrations, the effective concentration of the α7 nAChR PAMs (EC50) was determined. See Spencer et al. Assay Drug Dev. Technol. (2012) 10:313-324.
Direct activation of α7 (agonism), and potentiation of 5 acetylcholine-evoked α7 currents was determined as follows:
Automated Patch-Clamp Electrophysiology Functional Assay (Assay A)
Automated patch-clamp electrophysiology was performed using the IonFlux HT (Fluxion Biosciences Inc., San Francisco, Calif.) in the whole-cell, population patch configuration. Test compounds were assessed for their ability to modulate the function of the α7 nicotinic acetylcholine receptor both in the presence, and in the absence of the natural α7 agonist acetylcholine. A HEK cell line stably expressing both human RIC-3 and human α7 (PrecisION hnAChR α7/RIC-3, Eurofins Pharma, St. Charles, Mo.) was cultured in 175 cm^2 triple-layer tissue culture flasks to no more than 90% confluency in DMEM/F-12 growth media supplemented with 10% heat-inactivated fetal bovine serum, 1% non-essential amino acids, 0.625 μg/mL Puromycin, and 400 μg/mL Geneticin. Immediately prior to assay, cells were detached by first aspirating growth media, rinsing with Dulbecco's phosphate buffered saline, and then adding 10 mL of Accutase (Innovative Cell Technologies, San Diego, Calif.) to the flask and then incubating at 37° C. for 5 minutes. Detached cells were then recovered by the addition of 40 mL of CHO-serum-free media supplemented with 25 mM HEPES, and rocked gently in a 50 mL conical tube for 20 minutes prior to patch-clamp assay. After recovery, cells were pelleted by centrifugation at 1,000 RPM for 1 minute in a compact bench top centrifuge; recovery media was aspirated and cells were resuspended in external recording solution (150 mM NaCl, 5 mM KCl, 2 mM CaCl2, 1 mM MgCl2, 10 mM HEPES, 12 mM dextrose) to a density of 5.0×10^6 cells/mL. The cell suspension was added to the cell inlet wells on an IonFlux HT population patch plate which had previously been rinsed and primed with deionized H2O. Test compounds were serially diluted in DMSO and then resuspended to the final test concentration in external recording solution, with, or without […] acetylcholine added to the external recording solution; test compounds were then transferred to the IonFlux HT population patch plate. Internal recording solution (110 mM TrisPO4, 28 mM TrisBase, 0.1 mM CaCl2, 2 mM MgCl2, 11 mM EGTA, 4 mM MgATP) was added to the internal recording solution inlet wells on the IonFlux HT patch plate previously loaded with cells and test compounds, and the plate loaded into the IonFlux HT instrument. A protocol was executed on the IonFlux HT to trap the cells, break into the cells, and establish the whole-cell recording configuration; cells were voltage-clamped at a holding potential of −60 mV for the duration of the experiment, all experiments were conducted at room temperature, and the IonFlux HT injection pressure was 8 psi for solution applications. Upon establishing the whole-cell configuration, external recording solution was perfused into the recording chambers for 120 seconds and then 40 μM acetylcholine was applied for 1 second and immediately washed off with external recording solution for 60 seconds. […]

[1] = automated patch-clamp electrophysiology functional assay (Assay A), potency class by EC50, read-out: α7 nAChR Potency
[2] = electrophysiology EC50, HEK cells expressing human α7/RIC-3, 40 μM acetylcholine, holding potential −60 mV, room temperature, read-out: α7 nAChR EC50

T1 sequence (P36544 23-502): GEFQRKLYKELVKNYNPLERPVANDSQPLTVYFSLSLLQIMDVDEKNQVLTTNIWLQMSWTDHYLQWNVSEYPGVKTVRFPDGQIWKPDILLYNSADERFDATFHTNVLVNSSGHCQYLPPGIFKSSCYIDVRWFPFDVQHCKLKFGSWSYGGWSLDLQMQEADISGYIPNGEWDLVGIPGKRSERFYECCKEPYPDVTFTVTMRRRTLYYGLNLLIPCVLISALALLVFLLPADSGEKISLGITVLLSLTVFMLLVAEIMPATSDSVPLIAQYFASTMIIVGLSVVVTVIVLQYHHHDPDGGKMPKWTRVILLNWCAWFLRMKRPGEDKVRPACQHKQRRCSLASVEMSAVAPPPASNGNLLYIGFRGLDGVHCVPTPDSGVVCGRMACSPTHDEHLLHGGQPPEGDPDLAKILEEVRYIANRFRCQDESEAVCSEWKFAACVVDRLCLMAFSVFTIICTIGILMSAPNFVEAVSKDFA

EC50 [1]	EC50 [2]	Structure (SMILES)
500 to 5000 nM	3000 nM	CC1(C)[C@H](c2ccc(S(N)(=O)=O)cc2)[C@H]1c1nc(CC2CC2)no1 [Example B10]
5000 to 50000 nM	5800 nM	CC1(C)[C@H](c2ccc(S(N)(=O)=O)cc2)[C@H]1c1nc(C2CCOC2)no1 (some centres unmarked) [Example B11]
5000 to 50000 nM		CC1(C)[C@H](c2ccc(S(N)(=O)=O)cc2)[C@H]1c1nc(C2CCCO2)no1 (some centres unmarked) [Example B12]
500 to 5000 nM	4100 nM	CC1(C)[C@H](c2ccc(S(N)(=O)=O)cc2)[C@H]1c1nc(C2(c3ccccc3)CC2)no1 [Example B13]
500 to 5000 nM	1200 nM	CC1(C)[C@H](c2ccc(S(N)(=O)=O)cc2)[C@H]1c1nc(C2CCc3cc(F)ccc32)no1 (some centres unmarked) [Example B14]
500 to 5000 nM		CC1(C)[C@H](c2ccc(S(N)(=O)=O)cc2)[C@H]1c1nc(C2CC3(CCC3)C2)no1 (some centres unmarked) [Example B15]
500 to 5000 nM	2200 nM	CC(=O)N1CCC(c2noc([C@@H]3[C@@H](c4ccc(S(N)(=O)=O)cc4)C3(C)C)n2)CC1 [Example B16]
500 to 5000 nM	850 nM	CC(C)(C)c1noc([C@@H]2[C@@H](c3ccc(S(N)(=O)=O)cc3)C2(F)F)n1 [Example B17]
500 to 5000 nM	1200 nM	NS(=O)(=O)c1ccc([C@@H]2[C@@H](c3nc(C4CCC4)no3)C2(F)F)cc1 [Example B18]
100 to 500 nM	370 nM	NS(=O)(=O)c1ccc([C@@H]2[C@@H](c3nc(C4CCCC4)no3)C2(F)F)cc1 [Example B19]
5000 to 50000 nM		COc1ccc(Cl)cc1-c1noc([C@H]2[C@H](c3ccc(S(N)(=O)=O)cc3)C2(C)C)n1 [Example C1]
500 to 5000 nM		CC1(C)[C@@H](c2ccc(S(N)(=O)=O)cc2)[C@@H]1c1nc(-c2ccc(F)cc2C(F)(F)F)no1 [Example C2]
5000 to 50000 nM	6100 nM	CC(C)Oc1ccc(Cl)cc1-c1noc([C@H]2[C@H](c3ccc(S(N)(=O)=O)cc3)C2(C)C)n1 [Example C3]
100 to 500 nM	370 nM	CC1(C)[C@@H](c2ccc(S(N)(=O)=O)cc2)[C@@H]1c1nc(-c2ccccc2)no1 [Example C4]
100 to 500 nM	120 nM	NS(=O)(=O)c1ccc([C@@H]2C[C@H]2c2nc(-c3ccccc3)no2)cc1 [Example C5]
500 to 5000 nM		NS(=O)(=O)c1ccc([C@@H]2C[C@H]2c2nc(-c3ccccc3C(F)(F)F)no2)cc1 [Example C6]
500 to 5000 nM	960 nM	NS(=O)(=O)c1ccc([C@@H]2C[C@H]2c2nc(-c3ccc(F)cc3C(F)(F)F)no2)cc1 [Example C7]
100 to 500 nM	500 nM	NS(=O)(=O)c1ccc([C@@H]2C[C@H]2c2nc(-c3cc(F)ccc3C(F)(F)F)no2)cc1 [Example C8]
500 to 5000 nM		NS(=O)(=O)c1ccc([C@@H]2C[C@H]2c2nc(-c3c(F)cccc3F)no2)cc1 [Example C9]
500 to 5000 nM		NS(=O)(=O)c1ccc([C@@H]2C[C@H]2c2nc(-c3cccc(Br)c3)no2)cc1 [Example C10]
500 to 5000 nM		CC1(C)[C@@H](c2ccc(S(N)(=O)=O)cc2)[C@@H]1c1nc(-c2ccc(F)cc2F)no1 [Example C12]
100 to 500 nM	160 nM	NS(=O)(=O)c1ccc([C@@H]2C[C@H]2c2nc(-c3ccc(F)cc3F)no2)cc1 [Example C13]
≤ 100 nM	93 nM	NS(=O)(=O)c1ccc([C@@H]2C[C@H]2c2nc(-c3ccc(F)cc3)no2)cc1 [Example C14]
100 to 500 nM	340 nM	NS(=O)(=O)c1ccc([C@@H]2C[C@H]2c2nc(-c3cccc(F)c3F)no2)cc1 [Example C15]
100 to 500 nM	160 nM	NS(=O)(=O)c1ccc([C@@H]2C[C@H]2c2nc(-c3cc(F)ccc3F)no2)cc1 [Example C16]

EC50 [1]	EC50 [2]	Structure (SMILES)
100 to 500 nM		Cc1ccccc1-c1noc([C@@H]2C[C@H]2c2ccc(S(N)(=O)=O)cc2)n1 [Example C17]
100 to 500 nM		Cc1cccc(-c2noc([C@@H]3C[C@H]3c3ccc(S(N)(=O)=O)cc3)n2)c1 [Example C18]
500 to 5000 nM	510 nM	Cc1ccc(-c2noc([C@@H]3C[C@H]3c3ccc(S(N)(=O)=O)cc3)n2)cc1 [Example C19]
100 to 500 nM		NS(=O)(=O)c1ccc([C@@H]2C[C@H]2c2nc(-c3ccccc3F)no2)cc1 [Example C20]
≤ 100 nM	83 nM	NS(=O)(=O)c1ccc([C@H]2[C@H](c3nc(-c4ccccc4)no3)C2(F)F)cc1 [Example C21]
100 to 500 nM	120 nM	CC(C)c1noc([C@H]2[C@H](c3ccc(S(N)(=O)=O)cc3)C2(F)F)n1 [Example D1]
500 to 5000 nM		CC1(C)[C@@H](c2ccc(S(N)(=O)=O)cc2)[C@@H]1c1nc(-c2cnccc2C(F)(F)F)no1 [Example D2]
100 to 500 nM	150 nM	CC1(C)[C@@H](c2ccc(S(N)(=O)=O)cc2)[C@@H]1c1nc(C2CCCCC2)no1 [Example D3]
5000 to 50000 nM	6800 nM	CC1(C)[C@@H](c2ccc(S(N)(=O)=O)cc2)[C@@H]1c1nc(-c2ccccn2)no1 [Example D4]
100 to 500 nM	420 nM	CC(C)c1noc([C@H]2[C@H](c3ccc(S(N)(=O)=O)cc3)C2(C)C)n1 [Example D5]
500 to 5000 nM	820 nM	CC1(C)[C@@H](c2ccc(S(N)(=O)=O)cc2)[C@@H]1c1nc(-c2cncc(F)c2)no1 [Example D6]
100 to 500 nM		CC1(C)[C@@H](c2ccc(S(N)(=O)=O)cc2)[C@@H]1c1nc(C2CCC2)no1 [Example D7]
100 to 500 nM	190 nM	NS(=O)(=O)c1ccc([C@@H]2C[C@H]2c2nc(C3CCCCC3)no2)cc1 [Example D8]
100 to 500 nM		CC1(C)[C@@H](c2ccc(S(N)(=O)=O)cc2)[C@@H]1c1nc(C2CC2)no1 [Example D9]
100 to 500 nM	410 nM	CC(C)(C)c1noc([C@H]2[C@H](c3ccc(S(N)(=O)=O)cc3)C2(C)C)n1 [Example D10]
100 to 500 nM	430 nM	CC(C)c1noc([C@@H]2C[C@H]2c2ccc(S(N)(=O)=O)cc2)n1 [Example D11]
500 to 5000 nM	800 nM	NS(=O)(=O)c1ccc([C@@H]2C[C@H]2c2nc(-c3cncc(F)c3)no2)cc1 [Example D12]
5000 to 50000 nM	6000 nM	Cc1noc([C@H]2[C@H](c3ccc(S(N)(=O)=O)cc3)C2(C)C)n1 [Example D13]
500 to 5000 nM		CC1(C)[C@@H](c2ccc(S(N)(=O)=O)cc2)[C@@H]1c1nc(CC(F)(F)F)no1 [Example D14]
500 to 5000 nM		Cc1ncccc1-c1noc([C@H]2[C@H](c3ccc(S(N)(=O)=O)cc3)C2(C)C)n1 [Example D15]
500 to 5000 nM	1300 nM	Cc1ncccc1-c1noc([C@@H]2C[C@H]2c2ccc(S(N)(=O)=O)cc2)n1 [Example D16]
500 to 5000 nM	2300 nM	CC1(C)[C@@H](c2ccc(S(N)(=O)=O)cc2)[C@@H]1c1nc(-c2cncc(C(F)(F)F)c2)no1 [Example D17]
≤ 100 nM	95 nM	CC1(C)[C@@H](c2ccc(S(N)(=O)=O)cc2)[C@@H]1c1nc(C2CC(F)(F)C2)no1 [Example D18]
500 to 5000 nM		NS(=O)(=O)c1ccc([C@@H]2C[C@H]2c2nc(C3CC(F)(F)C3)no2)cc1 [Example D19]
≤ 100 nM	69 nM	CC1(C)[C@@H](c2ccc(S(N)(=O)=O)cc2)[C@@H]1c1nc(C2CCCC2)no1 [Example D20]
